Patent US20120315256A1, “USE OF TRANSFORMING GROWTH FACTOR - BETA 1 (TGF-B1) INHIBITOR PEPTIDES FOR THE TREATMENT OF CORNEAL FIBROSIS AND/OR HAZE” (DIGNA BIOTECH, S.I., priority 2010, published 2012)
Entries after “also recorded” stand apart in the source; their conditions may differ.

Columns and labels:
Long-Evans rats = assay: Corneal damage with 1 N NaOH in rats: weekly follow-up of corneal haze and epithelial closure (photographs, ImageJ); format: in vivo, rat; conditions: for chemical lesions induced after corneal damage with 1N NaOH: after treatment, different experimentation groups; for corneal haze, significance treated at the fifth week vs. treated at day 0 / epithelial closure, significance treated at the fifth week vs. treated at day 0: fifth week vs day 0; for corneal haze, significance control vs. peptide / epithelial closure, significance control vs. peptide: Student's t-test; for corneal haze / epithelial closure: treated eye vs control eye, topical eye drops, fifth formulation, 1 N NaOH damage; for epithelial closure: fluorescein
Excerpt: In this study, domestic hens (Gallus gallus domesticus) aged between 12 and 16 months were initially used as experimental animals but due to the difficulty of the model, especially in relation to obtaining and handling the animals, it was decided to use Long-Evans rats. Furthermore, it was bibliographically verified that these animals are used for in vivo models for studying corneal fibrosis because they allow to follow the evolution of the damage with more precision since they are pigmented rats and, like humans, have a Bowman's membrane.
Male Long-Evans rats aged 10 weeks were used, divided into 5 groups: • Group 1: 12 rats, 6 treated with dexamethasone and 6 treated with mitomycin C. • Group 2: 12 rats, 6 treated with p17 of the first formulation (see section 1.1.2.b) and 6 treated with p144 of the first formulation (see section 1.1.2.b). • Group 3: 12 rats, 6 treated with p17 of the second formulation (see section 1.1.2.b) and 6 treated with p144 of the second formulation (see section 1.1.2.b). • Group 4: 12 rats, 6 treated with p17 of the third formulation (see section 1.1.2.b) and 6 treated with p144 of the third formulation (see section 1.1.2.b). • Group 5: 12 rats, 6 treated with p17 of the fourth formulation (see section 1.1.2.b) and 6 treated with p144 of the fourth formulation (see section 1.1.2.b). • Group 6: 12 rats, 6 treated with p17 of the fifth formulation (see section 1.1.2.b) and 6 treated with p144 of the fifth formulation (see section 1.1.2.b).
To perform the damage in the cornea, the animals were anesthetized with isoflurane and a 5 mm Whatman paper disc impregnated in 1 N NaOH for 30 seconds was applied to them in the central part of the eye. After the damage, they were washed with abundant physiological saline serum and an antibiotic ointment was applied to them to prevent possible infections in the affected area.
After conducting several in vivo studies with the previously described groups of animals, it could be concluded that the chemical damage occurring after the application of NaOH for 30 seconds caused an excessive lesion for the study which was to be conducted, therefore, it was decided to conduct new experiments reducing the time to 15 seconds.
It was randomly established that the left eye of each animal would act as a control and that the right eye would be the treated eye, such that the same animals acts as a control in addition to being treated. It must be pointed out that all the animals received antibiotic treatment in both eyes daily only during the first week of the study for the purposes of avoiding microbial keratitis.
Starting from 0.15% sodium hyaluronate (Hyabak 10 mL, Thea) without preservatives: • p144: 20 mg were dissolved in 5 ml of eye drops, […] of saturated concentrated NaOH were incorporated, stirring and adding in portions of 5 μl. It was sonicated until solubilization. To adjust the pH, 500 μl of 1M HEPES (4-(2-hydroxyethyl)-1-piperazineethanesulfonic acid) were added, such that the pH changed from 10.5 to 7 • p144 control: 40 μl of saturated NaOH and 500 μl of 1 M HEPES (final concentration of HEPES 50 mM) • p17: 20 mg were dissolved in 5 ml of the eye drops, it was sonicated until complete solubilization and it was incorporated to the vial with a 10 ml syringe and a blue needle to perforate the filter of the contained (final concentration 2 mg/ml) • p17 control: non-manipulated eye drops • Note: The formulations were maintained at 4° C. throughout the study.
Therefore, all the results shown in relation to in vivo will refer to this type of treatment.
The administration of the treatment was initiated twenty-four hours after the damage. After that time a follow-up of the damage was performed, which consisted of taking photographs at days 0, 7, 14, 21, 28 and 35. To take the photographs the animals were anesthetized with isoflurane. Photographs were taken of both the control eye (left) and of the treated eye (right) with and without fluorescein. […]

p-Smad2 [1] = assay: Immunofluorescence for p-Smad2 on rabbit corneal fibroblasts; format: cell-based; conditions: TGF-β1 treated fibroblasts
Procedure: (§1) Therefore, Western Blot and immunofluorescence studies were conducted to determine, from cells extracted from the in vivo studies, the signaling pathway used by the peptides administered topically. It should be emphasized that said studies were conducted on fibroblasts from rabbit cornea and not from rat cornea. This decision was made due to the difficulty entailed in isolating fibroblasts from rodent eyes.

Smad 7 = assay: Western Blot against Smad7 in rabbit corneal fibroblasts treated with TGF-β; format: cell-based; conditions: primary culture; peptide 50 and 200 μg/ml
Procedure: as §1
(§2) Since the scientific literature repeatedly describes the TGF-β1 signaling pathways, the decision was made to go into depth in such pathways by means of the techniques described in the methodology section. Said pathways involve the study of the Smad protein family, specifically the study of the isoforms Smad2, 2/3 and 7.
(§3) To that end, protein extracts obtained from the primary culture of rabbit fibroblasts were treated with TGF-β1 at concentrations of 0, 3 and 5 ng/ml and, 50 and 200 μg/ml of peptide p17 and p144.

Smad 2/3 = assay: Western Blot against Smad2/3 in rabbit corneal fibroblasts; format: cell-based; conditions: primary culture; peptide 50 and 200 μg/ml
Procedure: as §1, §2, §3

p-Smad2 [2] = assay: Western Blot against p-Smad2 in TGF-β1-treated primary culture of rabbit corneal fibroblasts; format: cell-based; conditions: for inhibition of the expression of p-Smad2: TGF-β1 treated
Procedure: as §1, §2, §3

| Compound | clinical efficacy of drugs usually used in the treatment of corneal fibrosis (Long-Evans rats; first experiment, Group 1) | chemical lesions induced after corneal damage with 1N NaOH (Long-Evans rats) | corneal haze, significance treated at the fifth week vs. treated at day 0 (Long-Evans rats) | epithelial closure, significance treated at the fifth week vs. treated at day 0 (Long-Evans rats) | corneal haze, significance control vs. peptide (Long-Evans rats; fifth week) | epithelial closure, significance control vs. peptide (Long-Evans rats; fifth week) | epithelial closure, significance control vs. peptide (Long-Evans rats; fourth week) | corneal haze, significance control vs. peptide (Long-Evans rats; second and fourth week) | corneal haze (Long-Evans rats) | epithelial closure (Long-Evans rats) | translocation of p-Smad2 to the nucleus (p-Smad2 [1]) | expression of Smad 7 (Smad 7) | expression of Smad 2/3 (Smad 2/3) | inhibition of the expression of p-Smad2 (p-Smad2 [2]; peptide 50 μg/ml) | inhibition of the expression of p-Smad2 (p-Smad2 [2]; peptide 200 μg/ml) | effect on the signaling cascade of TGF-β1 (p-Smad2 [2]; primary culture of rabbit corneal fibroblasts, Smad2, Smad2/3, Smad7) |
| --- | --- | --- | --- | --- | --- | --- | --- | --- | --- | --- | --- | --- | --- | --- | --- | --- |
| CO[C@@]12[C@H](COC(N)=O)C3=C(C(=O)C(C)=C(N)C3=O)N1C[C@@H]1N[C@@H]12 [mitomycin C, reference compound] | correspond to those described in the scientific literature |  |  |  |  |  |  |  |  |  |  |  |  |  |  |  |
| TSLDASIIWAMMQN (TGF-beta 1 inhibitor peptide) [p144] |  | decreases significantly | highly significant | highly significant | highly significant | highly significant | significant | significant | clear decrease; also recorded: significantly reversed | clear decrease; also recorded: significantly reversed | inhibited | not modified | not affected; also recorded: not modified | slight inhibition; also recorded: inhibiting the phosphorylation of Smad2 | reaching the values of the controls; also recorded: inhibiting the phosphorylation of Smad2 |  |
| KRIWFIPRSSWYERA (TGF-beta 1 inhibitor peptide) [p17] |  | decreases significantly | highly significant | highly significant | highly significant | very significant |  |  | clear decrease; also recorded: significantly reversed | clear decrease; also recorded: significantly reversed | did not inhibit | not modified | not affected; also recorded: not modified |  |  | does not have any effect |
